In US11925195B2, “Synergistic nutritional compositions for treating cerebrovascular diseases” (CELAGENEX RESEARCH (INDIA) PVT. LTD., priority 2019, dated 2024):

What was measured:
Assay type in all cases: in vivo, Wistar Rats
[1] = Rat body weight in global ischemia reperfusion study; conditions: mean ± SEM, n = 6; for Body Weight, Basal: male Wistar rats; for Body Weight, Week 01: oral daily dosing (Standard 9.3 mg/kg, NBP 49.6 mg/kg, NR 31 mg/kg)
TNF alpha = assay: Rat TNF alpha level after global ischemia reperfusion; conditions: oral 10 days (Std 9.3 mg/kg, NBP 49.6 mg/kg, NR 31 mg/kg); 30 mins global ischemia on 7th day, 72 hrs reperfusion; mean ± SEM, n = 6; I/R control 172.17 ± 6.35
[2] = Rat feed consumption in global ischemia reperfusion study; conditions: oral daily dosing (Standard 9.3 mg/kg, NBP 49.6 mg/kg, NR 31 mg/kg)
Interleukin - 6 = assay: Rat Interleukin-6 level after global ischemia reperfusion; conditions: oral 10 days (Standard 9.3 mg/kg, NBP 49.6 mg/kg, NR 31 mg/kg); 30 mins global ischemia on 7th day, 72 hrs reperfusion; mean ± SEM, n = 6; I/R control 121.83 ± 1.65

| Compound | Body Weight, Basal [1] | Body Weight, Week 01 [1] | TNF alpha Level (TNF alpha) | Feed Consumption, Week 01 [2] | Interleukin - 6 Levels (Interleukin - 6) |
| --- | --- | --- | --- | --- | --- |
| CCCCC1OC(=O)c2ccccc21 (racemic) [3-N-butylpthalide (NBP), 3-N-butylphthalide] | 214.50 ± 1.12 gm | 224.50 ± 0.76 gm | 132.00 ± 2.34 pg/mL | 99.57 ± 1.00 gm | 85.39 ± 0.62 pg/mL |
| NC(=O)c1ccc[n+]([C@@H]2O[C@H](CO)[C@@H](O)[C@H]2O)c1.[Cl-] [Nicotinamide Riboside chloride (NR), nicotinamide riboside chloride] | 215.00 ± 1.46 gm | 224.83 ± 1.08 gm | 160.33 ± 4.79 pg/mL | 99.71 ± 1.04 gm | 109.56 ± 0.27 pg/mL |
